Values quoted from earlier work as cited in article PMC3600580 (Experimental neurology, 2012).

System: offspring
Settings: developmental exposure, ref Kuriyama, et al., 2005, Rice, 2007, Suvorov, 2009

| SMILES | activity phenotype of offspring |
| --- | --- |
| Brc1ccc(Oc2ccc(Br)cc2Br)c(Br)c1 [BDE-47, 2,2′,4,4′-TetraBDE] | hyperactive |
| Brc1c(Br)c(Br)c(Oc2c(Br)c(Br)c(Br)c(Br)c2Br)c(Br)c1Br [compound 209] | hyperactive |
